According to the supplement of paper PMC10307832:

Columns and labels:
Assay in all cases: relative viability (nuclei count vs DMSO), 5 days (fraction); higher = more cells survive
201T = system: 201T
How it was run: (§1)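 Relative viability was taken as the ratio of nuclei in treated wells to nuclei in vehicle wells. Lung cancer cell lines in 1536-well plates received compounds by pin tool one day after seeding, either one drug alone or a fixed anchor-drug dose plus five library-drug doses (not always all listed) in √10 steps. Nuclei were counted on 4× images after 5 days of treatment, and values are medians of duplicate plates.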

BEN = system: BEN
How it was run: as §1

COR-L 105 = system: COR-L 105
How it was run: as §1

EKVX = system: EKVX
How it was run: as §1

EPLC-272H = system: EPLC-272H
How it was run: as §1

H3255 = system: H3255
How it was run: as §1

HCC-44 = system: HCC-44
How it was run: as §1

HCC-827 = system: HCC-827
How it was run: as §1

HOP-62 = system: HOP-62
How it was run: as §1

LCLC-97TM1 = system: LCLC-97TM1
How it was run: as §1

LOU-NH91 = system: LOU-NH91
How it was run: as §1

LU99A = system: LU99A
How it was run: as §1

NCI-H1395 = system: NCI-H1395
How it was run: as §1

NCI-H1437 = system: NCI-H1437
How it was run: as §1

NCI-H1666 = system: NCI-H1666
How it was run: as §1

NCI-H1975 = system: NCI-H1975
How it was run: as §1

NCI-H2085 = system: NCI-H2085
How it was run: as §1

NCI-H2087 = system: NCI-H2087
How it was run: as §1

NCI-H2342 = system: NCI-H2342
How it was run: as §1

NCI-H358 = system: NCI-H358
How it was run: as §1

NCI-H647 = system: NCI-H647
How it was run: as §1

PC-3 [JPC-3] = system: PC-3 [JPC-3]
How it was run: as §1

SW 1573 = system: SW 1573
How it was run: as §1

CC1(C)CCC(c2ccc(Cl)cc2)=C(CN2CCN(c3ccc(C(=O)NS(=O)(=O)c4ccc(N[C@H](CCN5CCOCC5)CSc5ccccc5)c(S(=O)(=O)C(F)(F)F)c4)cc3)CC2)C1 [Navitoclax] + COc1cccc2cc(-c3nc([C@H]4CC[C@H](C(=O)O)CC4)n4ncnc(N)c34)[nH]c12 [OSI-027] (partner 0.5 µM)
relative viability (201T; first compound 0.005 µM): 0.73
relative viability (201T; first compound 0.01581 µM): 0.805
relative viability (201T; first compound 0.05 µM): 0.392
relative viability (201T; first compound 0.1581 µM): 0.707
relative viability (201T; first compound 0.5 µM): 0.647
relative viability (BEN; first compound 0.005 µM): 0.286
relative viability (BEN; first compound 0.01581 µM): 0.308
relative viability (BEN; first compound 0.05 µM): 0.333
relative viability (BEN; first compound 0.1581 µM): 0.308
relative viability (BEN; first compound 0.5 µM): 0.281
relative viability (COR-L 105; first compound 0.005 µM): 0.663
relative viability (COR-L 105; first compound 0.01581 µM): 1.01
relative viability (COR-L 105; first compound 0.05 µM): 0.573
relative viability (COR-L 105; first compound 0.1581 µM): 0.775
relative viability (COR-L 105; first compound 0.5 µM): 0.582
relative viability (EKVX; first compound 0.005 µM): 0.684
relative viability (EKVX; first compound 0.01581 µM): 0.882
relative viability (EKVX; first compound 0.05 µM): 0.651
relative viability (EKVX; first compound 0.1581 µM): 0.686
relative viability (EKVX; first compound 0.5 µM): 0.737
relative viability (EPLC-272H; first compound 0.005 µM): 0.296
relative viability (EPLC-272H; first compound 0.05 µM): 0.323
relative viability (EPLC-272H; first compound 0.1581 µM): 0.317
relative viability (EPLC-272H; first compound 0.5 µM): 0.3
relative viability (H3255; first compound 0.005 µM): 0.629
relative viability (H3255; first compound 0.01581 µM): 0.643
relative viability (H3255; first compound 0.05 µM): 0.568
relative viability (H3255; first compound 0.1581 µM): 0.67
relative viability (H3255; first compound 0.5 µM): 0.611
relative viability (HCC-44; first compound 0.05 µM): 0.627
relative viability (HCC-44; first compound 0.5 µM): 0.404
relative viability (HCC-827; first compound 0.005 µM): 0.767
relative viability (HCC-827; first compound 0.01581 µM): 0.951
relative viability (HCC-827; first compound 0.05 µM): 0.74
relative viability (HCC-827; first compound 0.1581 µM): 0.761
relative viability (HCC-827; first compound 0.5 µM): 0.812
relative viability (HOP-62; first compound 0.005 µM): 0.734
relative viability (HOP-62; first compound 0.01581 µM): 0.971
relative viability (HOP-62; first compound 0.05 µM): 0.863
relative viability (HOP-62; first compound 0.1581 µM): 0.648
relative viability (HOP-62; first compound 0.5 µM): 0.894
relative viability (LCLC-97TM1; first compound 0.005 µM): 0.608
relative viability (LCLC-97TM1; first compound 0.01581 µM): 0.484
relative viability (LCLC-97TM1; first compound 0.05 µM): 0.569
relative viability (LCLC-97TM1; first compound 0.1581 µM): 0.482
relative viability (LCLC-97TM1; first compound 0.5 µM): 0.601
relative viability (LOU-NH91; first compound 0.005 µM): 0.775
relative viability (LOU-NH91; first compound 0.01581 µM): 0.76
relative viability (LOU-NH91; first compound 0.05 µM): 0.699
relative viability (LOU-NH91; first compound 0.1581 µM): 0.755
relative viability (LOU-NH91; first compound 0.5 µM): 0.661
relative viability (LU99A; first compound 0.005 µM): 0.305
relative viability (LU99A; first compound 0.01581 µM): 0.345
relative viability (LU99A; first compound 0.05 µM): 0.248
relative viability (LU99A; first compound 0.1581 µM): 0.26
relative viability (LU99A; first compound 0.5 µM): 0.312
relative viability (NCI-H1395; first compound 0.005 µM): 0.591
relative viability (NCI-H1395; first compound 0.01581 µM): 0.77
relative viability (NCI-H1395; first compound 0.05 µM): 0.601
relative viability (NCI-H1395; first compound 0.1581 µM): 0.569
relative viability (NCI-H1395; first compound 0.5 µM): 0.754
relative viability (NCI-H1437; first compound 0.005 µM): 0.845
relative viability (NCI-H1437; first compound 0.01581 µM): 0.974
relative viability (NCI-H1437; first compound 0.05 µM): 0.932
relative viability (NCI-H1437; first compound 0.1581 µM): 0.856
relative viability (NCI-H1437; first compound 0.5 µM): 0.83
relative viability (NCI-H1666; first compound 0.005 µM): 0.823
relative viability (NCI-H1666; first compound 0.01581 µM): 0.815
relative viability (NCI-H1666; first compound 0.05 µM): 0.859
relative viability (NCI-H1666; first compound 0.1581 µM): 0.758
relative viability (NCI-H1666; first compound 0.5 µM): 0.839
relative viability (NCI-H1975; first compound 0.005 µM): 0.764
relative viability (NCI-H1975; first compound 0.01581 µM): 0.83
relative viability (NCI-H1975; first compound 0.05 µM): 0.823
relative viability (NCI-H1975; first compound 0.1581 µM): 0.688
relative viability (NCI-H1975; first compound 0.5 µM): 0.677
relative viability (NCI-H2085; first compound 0.005 µM): 0.664
relative viability (NCI-H2085; first compound 0.01581 µM): 0.871
relative viability (NCI-H2085; first compound 0.05 µM): 0.544
relative viability (NCI-H2085; first compound 0.1581 µM): 0.846
relative viability (NCI-H2085; first compound 0.5 µM): 0.757
relative viability (NCI-H2087; first compound 0.005 µM): 0.47
relative viability (NCI-H2087; first compound 0.01581 µM): 0.679
relative viability (NCI-H2087; first compound 0.1581 µM): 0.537
relative viability (NCI-H2087; first compound 0.5 µM): 0.794
relative viability (NCI-H2342; first compound 0.005 µM): 0.579
relative viability (NCI-H2342; first compound 0.01581 µM): 0.632
relative viability (NCI-H2342; first compound 0.05 µM): 0.628
relative viability (NCI-H2342; first compound 0.1581 µM): 0.603
relative viability (NCI-H2342; first compound 0.5 µM): 0.525
relative viability (NCI-H358; first compound 0.005 µM): 0.785
relative viability (NCI-H358; first compound 0.01581 µM): 1.01
relative viability (NCI-H358; first compound 0.05 µM): 0.706
relative viability (NCI-H358; first compound 0.1581 µM): 0.845
relative viability (NCI-H358; first compound 0.5 µM): 0.686
relative viability (NCI-H647; first compound 0.005 µM): 0.674
relative viability (NCI-H647; first compound 0.01581 µM): 0.738
relative viability (NCI-H647; first compound 0.05 µM): 0.891
relative viability (NCI-H647; first compound 0.1581 µM): 0.611
relative viability (NCI-H647; first compound 0.5 µM): 0.597
relative viability (PC-3 [JPC-3]; first compound 0.005 µM): 0.844
relative viability (PC-3 [JPC-3]; first compound 0.01581 µM): 0.764
relative viability (PC-3 [JPC-3]; first compound 0.05 µM): 0.768
relative viability (PC-3 [JPC-3]; first compound 0.1581 µM): 0.809
relative viability (PC-3 [JPC-3]; first compound 0.5 µM): 0.703
relative viability (SW 1573; first compound 0.005 µM): 0.762
relative viability (SW 1573; first compound 0.01581 µM): 0.782
relative viability (SW 1573; first compound 0.05 µM): 0.638
relative viability (SW 1573; first compound 0.1581 µM): 0.562
relative viability (SW 1573; first compound 0.5 µM): 0.576
